In US20040259096A1, “Receptor capture assay” (priority 2001, published 2004):

Key:
[1] = tested on: Ah receptor; assay: Receptor capture assay employing anti-ARNT magnetic microparticles; type: biochemical; conditions: 1 μl of 1 nM beta-naphthoflavone
Protocol: Activation of the Ah receptor with dose was performed in a microtiter strip containing 50 μl of Ah receptor preparation, 1 μl of 200 μg/ml biotinylated ARNT, and 1 μl of 1 nM beta-naphthoflavone and incubated for 1 hr at 30° C. To minimize non-specific interactions, 1-2 μg of salmon sperm DNA was added to the activated complex, along with NaCl to a final concentration of 60 mM. After 10 in room temperature, the nucleic acid-tracer (50 fmole) was added, and the reaction allowed to incubate for an additional 10 min at room temperature. Five μl of a 10% solution of microparticles coated with anti-ARNT antibody was added to each well and incubated for 30 min at room temperature on a Wallac microtiter plate shaker. The wells were washed using a using a LifeSep 96P (Dexter, Elk Grove Village, Ill.) magnet designed for separating magnetic particles in a microtiter plate format The strip was placed on the magnetic separator for three minutes. The beads had migrated to the side of the well by this time and the supernatant was removed by aspiration. The beads were washed four additional times with 150 μl of Wash Buffer B. The beads were captured, supernatant removed, and resuspended in the PCR reaction mix and amplified as in Example 2, B. The amplified product was analyzed by gel electrophoresis.

[2] = target: T1, AhR (Homo sapiens, UniProt P35869); conditions: Van den Berg et al., 1998; cited from earlier work
T1 sequence (P35869 11-848): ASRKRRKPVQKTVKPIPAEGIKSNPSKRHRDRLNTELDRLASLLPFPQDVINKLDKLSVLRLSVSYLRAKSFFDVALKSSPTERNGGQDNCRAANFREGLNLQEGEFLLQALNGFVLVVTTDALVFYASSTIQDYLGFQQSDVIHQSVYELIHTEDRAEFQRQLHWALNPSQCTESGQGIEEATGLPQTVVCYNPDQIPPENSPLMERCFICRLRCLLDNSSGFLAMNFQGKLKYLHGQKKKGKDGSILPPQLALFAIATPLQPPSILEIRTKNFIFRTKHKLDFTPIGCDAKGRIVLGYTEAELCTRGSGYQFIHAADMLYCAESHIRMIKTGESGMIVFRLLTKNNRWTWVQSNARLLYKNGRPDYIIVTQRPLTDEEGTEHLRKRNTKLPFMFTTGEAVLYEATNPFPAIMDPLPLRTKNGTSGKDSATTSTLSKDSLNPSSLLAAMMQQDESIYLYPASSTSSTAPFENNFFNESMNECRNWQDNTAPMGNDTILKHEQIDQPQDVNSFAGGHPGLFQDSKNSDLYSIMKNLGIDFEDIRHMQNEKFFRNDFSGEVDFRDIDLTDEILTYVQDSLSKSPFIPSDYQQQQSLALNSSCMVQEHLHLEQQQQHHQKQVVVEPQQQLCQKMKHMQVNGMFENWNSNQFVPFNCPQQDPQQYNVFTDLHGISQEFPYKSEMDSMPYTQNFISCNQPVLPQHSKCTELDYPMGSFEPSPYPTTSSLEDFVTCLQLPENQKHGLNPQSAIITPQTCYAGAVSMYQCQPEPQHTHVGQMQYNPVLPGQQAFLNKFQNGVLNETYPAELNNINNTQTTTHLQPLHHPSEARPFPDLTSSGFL

[3] = target: T2, AhR (Cavia porcellus, UniProt Q6J287); assay: Receptor capture assay, real-time PCR, AhR derived from guinea pig; type: biochemical; design: The cytosol containing AhR heteromers was stored at; from tissue; host or cells: liver cytosol of Hartley guinea pigs
T2 sequence (Q6J287 1-846): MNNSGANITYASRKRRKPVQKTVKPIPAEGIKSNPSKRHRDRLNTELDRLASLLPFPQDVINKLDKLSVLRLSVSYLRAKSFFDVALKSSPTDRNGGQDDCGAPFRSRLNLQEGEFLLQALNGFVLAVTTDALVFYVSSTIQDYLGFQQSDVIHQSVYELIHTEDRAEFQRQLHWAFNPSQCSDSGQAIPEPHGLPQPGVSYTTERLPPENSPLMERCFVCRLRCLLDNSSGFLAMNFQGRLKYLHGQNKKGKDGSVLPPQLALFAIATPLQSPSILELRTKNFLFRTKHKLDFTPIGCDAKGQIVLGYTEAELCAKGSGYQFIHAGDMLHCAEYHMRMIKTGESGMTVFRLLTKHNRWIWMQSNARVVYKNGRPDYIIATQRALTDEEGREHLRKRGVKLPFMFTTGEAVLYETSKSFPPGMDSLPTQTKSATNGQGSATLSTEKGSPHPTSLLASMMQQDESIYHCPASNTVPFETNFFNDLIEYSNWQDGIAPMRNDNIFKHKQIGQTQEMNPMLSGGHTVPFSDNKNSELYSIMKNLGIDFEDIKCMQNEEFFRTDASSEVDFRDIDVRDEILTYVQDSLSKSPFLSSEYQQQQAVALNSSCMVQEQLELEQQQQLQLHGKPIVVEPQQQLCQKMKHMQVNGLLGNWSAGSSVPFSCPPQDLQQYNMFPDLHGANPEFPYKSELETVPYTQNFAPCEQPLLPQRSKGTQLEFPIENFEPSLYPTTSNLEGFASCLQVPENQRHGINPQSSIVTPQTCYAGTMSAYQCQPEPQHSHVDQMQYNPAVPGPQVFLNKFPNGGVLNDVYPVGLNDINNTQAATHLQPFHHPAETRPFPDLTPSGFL
Protocol: A set of calibrators consisting of 5000, 2500, 1250, 626, 313, 156, and 78 parts per trillion (ppt or pg/ml) 2,3,7,8-tetrachlorodibenzo-p-dioxin (TCDD) was prepared in methanol. In addition to TCDD a set of calibrators for AhR agonist, beta-naphthoflavone (BNF) was prepared and analyzed in the assay. Separately, 25 ul of 1:50,000 dilution of 10 uM stock nucleic acid-tracer was added per 1 ml of rodent cytosol, which was the source of AhR, and was aliquoted into glass tubes. The standards were diluted 1:20 into 50-100 ul of rodent cytosol, and incubated for 1-2 hr at room temperature to 37° C. Following incubation, 40 to 100 ul of the reaction was transferred to each well of the antibody-coated Capture Strip and incubated on a shaking platform for 30 min to 1 hr at room temperature. The Capture Strips were washed 5 times with Wash Buffer B, and aspirated; optionally soaking wells for 30 sec-5 min with wash buffer during each cycle. Taqman® Universal PCR Master Mix, primers, and Taqman® probe (Applied Biosystems, Calif.) were added, and adhesive cover applied. PCR was performed and analyzed using an ABI PRISM® 7700, using default settings: 50° C., 2 min, 95° C. […] A threshold cycle (Ct) was determined for each reaction The Ct represents the PCR cycle at which an increase in reporter fluorescence above baseline signal can first be detected.

Compound | amplified DNA over DMSO vehicle controls (gel electrophoresis) [1] | toxic equivalency factor (TEF) value [2] | slope of dose-response curve [3] | EC50 of dose-response curve ([3]; pg of TCDD in the assay) [pg]
O=c1cc(-c2ccccc2)oc2ccc3ccccc3c12 [BNF, beta-naphthoflavone] | significant increase in DNA |  |  | 
Clc1cc2c(cc1Cl)Oc1cc(Cl)c(Cl)cc1O2 [TCDD, 2,3,7,8-tetrachlorodibenzo-p-dioxin] |  | 1 | −1.042 | 2.6
